Data as given in patent publication US5171746A, “Thiazole and imidazole derivatives and antiulcer composition containing same” (priority 1990, dated 1992).
In brackets after ≈: the same amount, converted by molar mass.

Experiments:
[1] = system: Water-immersion induced stress ulcer; assay: Water-immersion induced stress ulcer; type: in vivo, Wister male rats; conditions: rats, single dose 30 mg/kg in 0.5% CMC one hour prior to stressing (water immersion, 6 h); for inhibition in vivo at 30 mg/kg: Rattus norvegicus
Method: Wister male rats (11-week age) fasted for 18 hours were placed in a restraint cage, which was in turn immersed to a depth of the pectoral region in water at 20 to 22° C. to leave the rats under stress for six hours. Then, the rats were drawn up from the water and put down by vertebral dislocation. Afterwards, the stomach was removed, infused with 5 ml of a 5% aqueous solution of formalin and was wholly immersed in the same solution for 30 minutes for fixation. The fixed sample was dissected along the curvature ventriculi major, and the ulcer regions were measured along their major length (in mm) by means of slide calipers. The total sum of the measurements per rat is a value of ulcer index.
The compounds under test shown in TABLE 3, suspended in 0.5% carboxymethylcellulose (CMC), were administered to the rats at a single dose of 30 mg/kg body weight of the compound one hour prior to the stressing. To a control group, only 0.5% CMC was administered. The antiulcer activity was calculated according to the following equation: [formula]

[2] = system: Helicobacter pylori HI-0001; assay: Antimicrobial activity, agar plate dilution method (strain HI-0001); type: cell-based; conditions: HI0001, 48 h, two days at 37° C., read-out: MINIMUM GROWTH INHIBITION CONCENTRATION
Text: (§1) Helicobacter pylori is Gram negative microaerophile which has been recently isolated from human tunica mucosa ventriculi and seems to serve for pathopoiesis and recurrence of ulcer in alimentary canal. The compounds of formula (I) show an antimicrobial activity to inhibit the growth of Helicobacter pylori.
(§2) The media used were that of Muller-Hinton liquid medium (BBL) containing 7% horse serum, and of Heart-Infusin agar medium (Difco) containing 5% horse defibrinized blood. The culture was incubated for two days at 37° C. using Gaspack (BBL) without a catalyst.

[3] = system: Helicobacter pylori HI-0015; assay: Antimicrobial activity, agar plate dilution method (strain HI-0015); type: cell-based; conditions: HI0015, 48 h, two days at 37° C., read-out: MINIMUM GROWTH INHIBITION CONCENTRATION
Text: as §1, §2

Ethanol-induced ulcer = assay: Ethanol-induced ulcer; type: in vivo, Donryu masculine rats; conditions: rats; 100% ethanol 5 ml/kg orally; compound in 0.5% CMC orally at 5 ml/kg; one hour
Method: Five (5) ml/kg of 100% ethanol was orally administered to Donryu masculine rats fasted for 48 hours and dehydrated for 24 hours. Then, the compounds under test, suspended in 0.5% CMC, were orally administered to the rats at a dose of 5 ml/kg body weight. One hour later, the rats were put down in a similar manner as mentioned above to remove and treat the stomach.

Acute toxicity = type: in vivo; conditions: mice, three per group

Row | SMILES | inhibition in vivo at 30 mg/kg [1] | MIC [2] | MIC [3] | other results
1 | O=C(NCCCl)NCC[S+]([O-])c1nc2cc(Cl)ccc2s1 (stereo not shown) [Example 24, N-(5-chlorobenzothiazol-2-y1)sulfinylethyl--N'-(2-chloroethyl)urea] | 70.1% |  |  | 
2 | [O-][S+](CCN1CCOCC1)c1nc2ccc(Cl)cc2[nH]1 (stereo not shown) [Example 49, 5-chloro-2-[(2-morpholinoethyl)sulfinyl]benzimidazole] | 63.6% |  |  | 
3 | [O-][S+](CCN1CCOCC1)c1nc2cccc(Cl)c2s1 (stereo not shown) [Example 35, 7-chloro-2-[(2-morpholinoethyl)sulfinyl]benzothiazole] | 72.1% | 3.13 µg/mL (≈ 9.46 µM) | 6.25 µg/mL (≈ 18.9 µM) | 
4 | CCOCC[S+]([O-])c1nc2cc([N+](=O)[O-])ccc2s1 (stereo not shown) [Example 78, 5-nitro-2-[(2-ethoxyethyl)sulfinyl]benzothiazole] | 60.7% | 6.25 µg/mL (≈ 20.8 µM) | 6.25 µg/mL (≈ 20.8 µM) | 
5 | CCN=C(NC#N)NCC[S+]([O-])c1nc2cc(Cl)ccc2s1 (stereo not shown) [Example 28, N-(5-chlorobenzothiazol-2-yl)sulfinylethyl--N'-cyano--N"-ethylguanidine] | 57% |  |  | 
6 | [O-][S+](CCN1CCOCC1)c1nc2cc(Cl)ccc2s1 (stereo not shown) [Example 32, 5-chloro-2-[(2-morpholinoethyl)sulfinyl]benzothiazole] | 83.1% | 1.56 µg/mL (≈ 4.71 µM) | 3.13 µg/mL (≈ 9.46 µM) | depression of erosion (Ethanol-induced ulcer): 93.0%
7 | CCOCC[S+]([O-])c1nc2cc(C(F)(F)F)ccc2s1 (stereo not shown) [Example 76, 5-trifluoromethyl-2-[(2-ethoxyethyl)sulfinyl]benzothiazole] | 61.3% |  |  | 
8 | CC(C)N(CC[S+]([O-])c1nc(-c2cccnc2)cs1)C(C)C (stereo not shown) [Example 8] | 70.5% |  |  | 
9 | [O-][S+](CCN1CCOCC1)c1nc2ccc(Cl)cc2s1 (stereo not shown) [Example 37, 6-chloro-2-[(2-morpholinoethyl)sulfinyl]benzothiazole] | 78% | 3.13 µg/mL (≈ 9.46 µM) | 6.25 µg/mL (≈ 18.9 µM) | 
10 | CCOCC[S+]([O-])c1nc(-c2ccsc2)cs1 (stereo not shown) [Example 14, 2-[(2-ethoxyethyl)sulfinyl]-4-(3-thienyl)thiazole] | 62.7% | 50 µg/mL (≈ 174 µM) | 100 µg/mL (≈ 348 µM) | 
11 | CCNC(=O)NCC[S+]([O-])c1nc2cc(Cl)ccc2s1 (stereo not shown) [Example 22, N-(5-chlorobenzothiazol-2-yl)sulfinylethyl--N'-ethylurea] | 63.1% |  |  | 
12 | CCOCC[S+]([O-])c1nc(-c2cccnc2)cs1 (stereo not shown) [Example 2, 2-[(2-ethoxyethyl)sulfinyl]-4-(3-pyridyl)thiazole] | 72.5% |  |  | 
13 | COc1ccc2[nH]c([S+]([O-])Cc3ncc(C)c(OC)c3C)nc2c1 (stereo not shown) [Omeprazole, reference compound] | 90% |  |  | 
14 | CN1CCCC1CC[S+]([O-])c1nc2cc(Cl)ccc2s1 (stereo not shown) [Example 47, 5-chloro-2-{[2-(N-methylpyrrolidin-2-Y1)ethyl]sulfinyl}benzothiazole] |  | 0.39 µg/mL (≈ 1.19 µM) | 3.13 µg/mL (≈ 9.52 µM) | 
15 | CCOCC[S+]([O-])c1nc2ccc(Cl)cc2s1 (stereo not shown) [Example 63, 6-chloro-2-[(2-ethoxyethyl)sulfinyl]benzothiazole] | 76.5% | 3.13 µg/mL (≈ 10.8 µM) | 6.25 µg/mL (≈ 21.6 µM) | 
16 | [O-][S+](CCOCCCl)c1nc2cc(Cl)ccc2s1 (stereo not shown) [Example 67, 5-chloro-2-{[2-(2-chloroethoxy)ethyl]sulfinyl}benzothiazole] |  |  |  | Inhibition (%) [1]: 53.3%
17 | O=C(NCCCl)NCCSc1nc2cc(Cl)ccc2s1 [Example 23, N-(5-chlorobenzothiazol-2-yl)thioethyl--N'-(2-chloroethyl)urea] |  | 12.5 µg/mL (≈ 35.7 µM) | 12.5 µg/mL (≈ 35.7 µM) | 
18 | CC1(C)S[C@@H]2[C@H](NC(=O)[C@H](N)c3ccccc3)C(=O)N2[C@H]1C(=O)O [Aminobenzylpenicillin, reference compound] |  | 0.025 µg/mL (≈ 0.0715 µM) | 0.2 µg/mL (≈ 0.572 µM) | 
19 | Clc1ccc2sc(SCCN3CCOCC3)nc2c1 [Example 31, 5-chloro-2-[(2-morpholinoethyl)thio]benzothiazole] |  |  |  | Acute toxicity (deaths) (Acute toxicity; intraperitoneal dose of 100 mgkg): none of the animals were sacrificed; Acute toxicity (deaths) (Acute toxicity; peroral dose of 300 mgkg): none of the animals were sacrificed
20 | CCN=C(NC#N)NCCSc1nc2cc(Cl)ccc2s1 [Example 27, N-(5-chlorobenzothiazol-2-yl)thioethyl--N'-cyano--N"-ethylguanidine] |  | 12.5 µg/mL (≈ 36.8 µM) | 12.5 µg/mL (≈ 36.8 µM) | 
21 | CCOCC[S+]([O-])c1nc2ccc(OC)cc2[nH]1 (stereo not shown) [Example 72, 5-methoxy-2-[(2-ethoxyethyl)sulfinyl]benzimidazole] | 65.6% |  |  | 
22 | CCOCC[S+]([O-])c1ncc(-c2ccccc2)s1 (stereo not shown) [Example 12, 2-[(2-ethoxyethyl)sulfinyl]-5-phenylthiazole] | 52.5% |  |  | 
23 | CCOCC[S+]([O-])c1nc2cccc(Cl)c2s1 (stereo not shown) [Example 61, 7-chloro-2-[(2-ethoxyethyl)sulfinyl]benzothiazole] | 61.8% |  |  | 
24 | CCNC(=S)NCCSc1nc2cc(Cl)ccc2s1 [Example 25, N-(5-chlorobenzothiazol-2-yl)thioethyl--N'-ethylthiourea] | 64.2% | 0.025 µg/mL (≈ 0.0753 µM) | 0.025 µg/mL (≈ 0.0753 µM) | 
25 | CC1COc2c(N3CCN(C)CC3)c(F)cc3c(=O)c(C(=O)O)cn1c23 (stereo not shown) [Ofloxacin, reference compound] |  | 0.78 µg/mL (≈ 2.16 µM) | 0.78 µg/mL (≈ 2.16 µM) | 
